Like-named read-outs stand apart in the source and are kept apart here.
Legend:
[1] = target: T1, 5-HT2A receptor (Homo sapiens, UniProt P28223); test: 5-HT2A receptor radioligand competition assay (SPA, [3H]ketanserin); assay type: binding; details: 1 nM [3H]ketanserin, membranes containing 5-HT2A
T1 construct: purchased PerkinElmer ES-313-M400UA
Protocol: Competition assays were performed as for 5-HT1A assays with the following differences. […] Determination of non-specific binding was carried out in the presence of […] of spiperone (S7395-250MG, Sigma-Aldrich). Equilibrium binding constant for ketanserin (Kd) was determined from saturation binding curves using the ‘one-site saturation binding analysis’ method in GraphPad PRISM software (Version 9.2.0).

[2] = target: T2, human serotonin transporter (SERT) (Homo sapiens, UniProt P31645); test: biochemical; assay type: binding
T2 construct: purchased PerkinElmer RBHSTM400UA
Protocol: A commonly applied SERT binding assay involves competition binding assays employing radiolabelled ligands. […] Radioactive binding assays were carried out using the Scintillation Proximity Assay (SPA). For saturation binding assay, mixtures of 9 μg of membrane containing human SERT was pre-coupled to 1 mg of SPA beads at room temperature in a tube rotator for 1 hour in binding buffer (50 mM Tris-HCl pH7.4, 120 mM NaCl, 5 mM KCl, 1 mM ascorbic acid, 10 μM pargyline HCl). […] After incubation, the samples are read on a MicroBeta 2 Microplate Counter. Non-specific binding was carried out in the presence of 200 μM of clomipramine hydrochloride (C7291-1G, Sigma). Equilibrium binding constant for imipramine (KD) was determined from saturation binding curve using one-site saturation binding analysis from GraphPad PRISM software (Version 9.2.0). All test compounds were dissolved to 100 mM in DMSO and dilutions were carried out in assay buffer. […] Ki values were calculated from the competition displacement data using the competitive binding analysis from GraphPad PRISM software. […] Vehicle (DMSO) without drug was used as a negative control.

[3] = test system: human model (NT2) neurons; test: Neuroplastogenicity (neurite outgrowth) assay in NT2 neurons; assay type: cell-based; design: key: a positive (+) designation indicating strong evidence of enhanced neurite outgrowth in drug-treated NT2 cells compared to vehicle-treated cells; a negative (−) designation indicating weak or no evidence of enhanced neurite outgrowth in drug-treated NT2 cells compared to vehicle-treated cells; details: 1 or 10 μM, 48 h, visual inspection vs vehicle (0.1% DMSO)
Source text: Classic psychedelics such as psilocybin and DMT show potential to treat anxiety and depression, and it has been theorized that such long-term improvements arise because these drugs rapidly and lastingly stimulate neuroplasticity (Calder and Hasler, 2023, Neuropsychopharmacol. 48:104-112). Thus, it was of interest to determine the potential of new compounds as neuroplastogens. Herein, we assess the capacity of various compounds to enhance neurite outgrowth in human model (NT2) neurons.
Human NT2/D1 precursor cells were purchased from the American Type Culture Collection (ATCC, Manassas, VA, USA). Neuronal differentiation was carried out as previously described (Roloff et al., 2015, PloS ONE 10:e0118536) with minor modifications. Firstly, NT2/D1 cells were seeded in T-25 suspension culture flasks (REF #690190, Greiner bio-one, Germany). Each flask contains a minimum of 5×10^6 cells in 10 ml of DMEM/F12 supplemented with 10% fetal bovine serum (FBS), 1% penicillin and streptomycin and 10 μM retinoic acid (RA) medium to start neuronal differentiation. The cells were cultured for 3 days in free floating medium. At the end of the incubation cells were trypsinized and collected by centrifugation, mechanically dispersed, and counted. Counted cells were seeded along Poly D-Lysine (PDL) coated cover slips (12 mm; diameter round, Fisher Scientific; GG-12-PDL) containing a minimum of 0.1×10^5 cells in culture medium without RA. The next day culture medium was replaced with RA medium containing 2% of FBS. These cells cultured for 5 days and two days later, RA medium was changed.
After cells had successfully attached and established along coverslips, the RA medium was replaced with new medium containing 2% FBS and one of the following: (1) test compound (1 or 10 μM), (2) RhoK (ROCK) inhibitor Y-27632 (1 μM) as a positive control (Dihydrochloride; Sigma-Aldrich) (Roloff et al., 2015, PloS ONE 10:e0118536); (3) DMT (1 or 10 μM) as a positive control (Calder and Hasler, 2023, Neuropsychopharmacol. 48:104-112), or (4) vehicle (0.1% DMSO) as a negative control. These cells were incubated for 48 hours under standard conditions (370C, 5% CO2). The cells cultured along coverslips were collected after 48 hours of treatment. The coverslips washed with calcium chloride and magnesium chloride-free phosphate buffered saline (PBS) pH 7.4 (Gibco, #70011-044) and fixed in paraformaldehyde (PFA) 4% in PBS (#J61899, thermoscientific) for 15 min at room temperature (RT) and washed three times with 0.01% of Triton-X100 in PBS (PBST) to remove remaining PFA and to permeabilize the cells. Non-specific binding sites were blocked with 5% of Bovine Serum Albumin (BSA) solution (#9048-46-8, Millipore) in PBST for 60 minutes at RT. Rabbit monoclonal antibody β-III-tubulin (1:5,000, ab52623, Abcam) was applied overnight (O/N) at 4° C. Next day cells are washed three times in PBST, neurons were incubated with secondary antibody Donkey anti-rabbit IgG(H+L) Alexa Fluor™ Plus488 (1:5000 #A32790, Invitrogen) for 1 hour at RT. These coverslips were mounted on Gluoromount-G™, with 4′6-diamidino-2′henylindoldihydrochloride (DAPI) (#E141818, Invitrogen). The immunofluorescence images were analyzed using an Olympus VS110 slide scanner microscope.
B-III-Tubulin immunofluorescence was quantified using ImageJ. Briefly, Corrected Total Cell Fluorescence (CTCF) was acquired for at least ˜8-10 representative cells, where CTCF=Integrated Density−[Area of selected cell*Mean Fluorescence of background]. The CTCF values, referred to herein as ‘signal intensities’, were used to calculate overall means±SD for each treatment. One-Way ANOVA was used to compare treatments. Further, the mean of each treatment was compared with the mean of the control treatment (RA-differentiated cells treated with vehicle, 0.1% DMSO) using Dunnett's multiple comparison procedure. […]

[4] = target: T3, 5-HT1A receptor (Homo sapiens, UniProt P08908); test: 5-HT1A receptor radioligand competition assay (SPA, [3H]8-hydroxy-DPAT); assay type: binding; details: 0.5 nM hot 8-hydroxy-DPAT; membranes containing 5-HT1A
T3 construct: purchased Perkin Elmer 6110501400UA
T3 sequence (P08908 1-422): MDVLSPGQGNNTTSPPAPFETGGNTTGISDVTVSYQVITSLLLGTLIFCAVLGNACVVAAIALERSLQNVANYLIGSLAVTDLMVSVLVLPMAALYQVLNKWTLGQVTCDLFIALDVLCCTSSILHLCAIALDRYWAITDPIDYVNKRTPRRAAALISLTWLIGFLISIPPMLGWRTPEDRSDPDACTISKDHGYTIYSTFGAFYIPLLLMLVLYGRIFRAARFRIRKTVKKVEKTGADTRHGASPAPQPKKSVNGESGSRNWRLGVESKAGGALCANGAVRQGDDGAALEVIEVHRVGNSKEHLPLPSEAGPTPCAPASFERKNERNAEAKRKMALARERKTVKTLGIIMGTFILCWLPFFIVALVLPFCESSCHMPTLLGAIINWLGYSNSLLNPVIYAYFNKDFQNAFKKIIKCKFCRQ
Protocol: 5-HT1A receptor. […] After incubation, the samples were read on a MicroBeta 2 Microplate Counter (perkinelmer.com). Non-specific binding was carried out in the presence of 100 μM of metergoline (M3668-500MG, Sigma-Aldrich). Equilibrium binding constant for 8-hydroxy-DPAT (KD) was determined from a saturation binding curve using one-site saturation binding analysis from GraphPad PRISM software (Version 9.2.0). Test compound was dissolved to 100 mM in dimethylsulfoxide (DMSO), and dilutions were carried out in assay buffer. […] Ki values were calculated from the competition displacement data using the competitive binding analysis from GraphPad PRISM software. […] Conversely, blank preparations lacking any drug (simply termed ‘DMSO’ samples) were used as negative controls, in addition to those containing tryptophan which is not known to bind the 5-HT1A receptor.

T1 sequence (P28223 whole entry): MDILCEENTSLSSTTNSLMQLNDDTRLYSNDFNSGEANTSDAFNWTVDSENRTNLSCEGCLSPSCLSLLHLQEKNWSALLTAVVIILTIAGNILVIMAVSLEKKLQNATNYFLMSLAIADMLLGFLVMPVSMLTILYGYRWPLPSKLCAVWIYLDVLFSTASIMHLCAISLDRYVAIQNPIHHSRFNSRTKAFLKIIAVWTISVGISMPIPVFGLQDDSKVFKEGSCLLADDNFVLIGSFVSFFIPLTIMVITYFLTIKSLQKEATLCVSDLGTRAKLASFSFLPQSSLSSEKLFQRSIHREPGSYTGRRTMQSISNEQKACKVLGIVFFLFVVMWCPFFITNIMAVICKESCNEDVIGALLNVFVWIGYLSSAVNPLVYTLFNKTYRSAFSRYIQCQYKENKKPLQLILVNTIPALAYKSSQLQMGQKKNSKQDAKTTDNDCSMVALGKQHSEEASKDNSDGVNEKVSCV
T2 sequence (P31645 whole entry): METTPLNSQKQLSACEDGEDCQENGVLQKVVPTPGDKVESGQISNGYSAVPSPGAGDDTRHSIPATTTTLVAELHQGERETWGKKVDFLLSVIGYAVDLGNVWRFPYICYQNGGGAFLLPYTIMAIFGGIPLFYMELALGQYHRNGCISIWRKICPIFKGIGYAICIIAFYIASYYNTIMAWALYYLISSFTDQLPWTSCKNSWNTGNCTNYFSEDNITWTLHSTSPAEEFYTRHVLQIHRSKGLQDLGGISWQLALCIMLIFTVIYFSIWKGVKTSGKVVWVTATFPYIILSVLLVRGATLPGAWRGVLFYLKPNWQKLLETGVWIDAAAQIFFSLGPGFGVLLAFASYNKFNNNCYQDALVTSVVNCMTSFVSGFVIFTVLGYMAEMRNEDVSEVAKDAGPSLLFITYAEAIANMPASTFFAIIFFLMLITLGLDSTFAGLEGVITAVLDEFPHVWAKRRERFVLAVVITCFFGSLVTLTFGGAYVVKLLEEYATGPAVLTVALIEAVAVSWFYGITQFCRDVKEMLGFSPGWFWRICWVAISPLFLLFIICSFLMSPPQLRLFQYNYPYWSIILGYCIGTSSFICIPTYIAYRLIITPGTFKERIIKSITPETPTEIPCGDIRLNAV

Row | SMILES | Ki ([1]; 5-HT2A, Ki) [µM] | Ki ([2]; 1 nM imipramine, membranes containing human SERT, read-out: SERT, Ki) [µM] | Evidence of neurite outgrowth: Yes (+) or No (−) [3] | Ki ([1]; read-out: 5-HT2A, Ki) [µM] | Ki [4] [µM] | Ki [2] [µM]
1 | CN(C)CCc1c[nH]c2ccccc12 [DMT, dimethyltryptamine, reference compound] | 1.03 | 2.58 | + |  |  | 
2 | CNC(C)Cc1ccc2c(c1)OCO2 (stereo not drawn) [MDMA, 3,4-methylenedioxymethamphetamine, reference compound] |  |  |  | 39.9 | 11 | 5.8

Source: patent US12577232B2, “N-heterocycle substituted tryptamine derivatives and methods of using” (ENVERIC B[…] INC., priority 2024, dated 2026)
